Data reported in ChEMBL document CHEMBL1201862, “PubChem BioAssay data set” (2004).
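Growth conditions: 96-well plates. Treatment: test compound, 48 hours, 5 concentrations. Analysis: linear interpolation between bracketing concentrations; unreached endpoints set to highest concentration. GI50 marks 50% less growth.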 Calls of active or inactive are those of the source. No stated cut-off is given here; in the data, active = GI50 up to about 1.1 µM and inactive = higher.

Assays:
Test in all cases: growth of human tumour cells (NCI), 48 h
HT-29 = system: HT-29
HCC 2998 = system: HCC 2998
NCI/ADR-RES = system: NCI/ADR-RES
SF-268 = system: SF-268
Hs-578T = system: Hs-578T
SK-MEL-2 = system: SK-MEL-2
SF-539 = system: SF-539
A498 = system: A498
MDA-MB-231 = system: MDA-MB-231
UACC-257 = system: UACC-257
RPMI-8226 = system: RPMI-8226
SF-295 = system: SF-295
HCT-116 = system: HCT-116
SK-MEL-28 = system: SK-MEL-28
NCI-H23 = system: NCI-H23
ACHN = system: ACHN
HOP-62 = system: HOP-62
Malme-3M = system: Malme-3M
HCT-15 = system: HCT-15
LOX IMVI = system: LOX IMVI
M14 = system: M14
MOLT-4 = system: MOLT-4
TK-10 = system: TK-10
IGROV-1 = system: IGROV-1
786-0 = system: 786-0
A549 = system: A549
RXF 393 = system: RXF 393
SN12C = system: SN12C
SK-MEL-5 = system: SK-MEL-5
OVCAR-8 = system: OVCAR-8
U-251 = system: U-251
SNB-75 = system: SNB-75
EKVX = system: EKVX
UO-31 = system: UO-31
OVCAR-4 = system: OVCAR-4
SR = system: SR
SNB-19 = system: SNB-19
SW-620 = system: SW-620
OVCAR-3 = system: OVCAR-3
OVCAR-5 = system: OVCAR-5
KM12 = system: KM12
MDA-MB-435 = system: MDA-MB-435
UACC-62 = system: UACC-62
SK-OV-3 = system: SK-OV-3
T47D = system: T47D
NCI-H226 = system: NCI-H226
HOP-92 = system: HOP-92
COLO 205 = system: COLO 205
BT-549 = system: BT-549
HL-60 = system: HL-60
MCF7 = system: MCF7
DU-145 = system: DU-145
CAKI-1 = system: CAKI-1
NCI-H460 = system: NCI-H460
K562 = system: K562
MDA-N = system: MDA-N
PC-3 = system: PC-3
CCRF-CEM = system: CCRF-CEM
NCI-H522 = system: NCI-H522

## COC(=O)C1=C(O)C(C(=O)OC)[C@]2(O)[C@H](C(=O)OC)[C@H]1C[C@@H](c1ccc(Cl)cc1Cl)[C@H]2C(=O)OC (some centres undefined)
HT-29
  GI50: 13.2 µM (inactive)
HCC 2998
  GI50: 10.1 µM (inactive)
NCI/ADR-RES
  GI50: 3.83 µM (inactive)
SF-268
  GI50: 7.62 µM (inactive)
Hs-578T
  GI50: 15.5 µM (inactive)
SK-MEL-2
  GI50: 4.7 µM (inactive)
SF-539
  GI50: 2.84 µM (inactive)
A498
  GI50: 11.4 µM (inactive)
MDA-MB-231
  GI50: 19.5 µM (inactive)
UACC-257
  GI50: 10 µM (inactive)
RPMI-8226
  GI50: 1.75 µM (inactive)
SF-295
  GI50: 7.46 µM (inactive)
HCT-116
  GI50: 6.3 µM (inactive)
SK-MEL-28
  GI50: 12.4 µM (inactive)
NCI-H23
  GI50: 4.34 µM (inactive)
ACHN
  GI50: 11 µM (inactive)
HOP-62
  GI50: 5.5 µM (inactive)
Malme-3M
  GI50: 6.95 µM (inactive)
HCT-15
  GI50: 4.91 µM
LOX IMVI
  GI50: 5.92 µM (inactive)
M14
  GI50: 6.24 µM (inactive)
MOLT-4
  GI50: 2.48 µM (inactive)
TK-10
  GI50: 12.6 µM (inactive)
IGROV-1
  GI50: 6.3 µM (inactive)
786-0
  GI50: 26.3 µM (inactive)
A549
  GI50: 4.36 µM (inactive)
RXF 393
  GI50: 7.76 µM (inactive)
SN12C
  GI50: 3.28 µM (inactive)
SK-MEL-5
  GI50: 4.91 µM (inactive)
OVCAR-8
  GI50: 4.81 µM (inactive)
U-251
  GI50: 2.72 µM (inactive)
SNB-75
  GI50: 8.61 µM (inactive)
EKVX
  GI50: 19.1 µM (inactive)
UO-31
  GI50: 8.97 µM (inactive)
OVCAR-4
  GI50: 6.55 µM (inactive)
SR
  GI50: 4.06 µM (inactive)
SNB-19
  GI50: 6.98 µM (inactive)
SW-620
  GI50: 6.01 µM (inactive)
OVCAR-3
  GI50: 5.14 µM (inactive)
OVCAR-5
  GI50: 17 µM (inactive)
KM12
  GI50: 12.3 µM (inactive)
MDA-MB-435
  GI50: 4.09 µM (inactive)
UACC-62
  GI50: 9.46 µM (inactive)
SK-OV-3
  GI50: 13.2 µM (inactive)
T47D
  GI50: 4.83 µM (inactive)
NCI-H226
  GI50: 2.91 µM (inactive)
HOP-92
  GI50: 7.96 µM (inactive)
COLO 205
  GI50: 8.77 µM (inactive)
BT-549
  GI50: 6.31 µM (inactive)
HL-60
  GI50: 2.65 µM (inactive)
MCF7
  GI50: 4.79 µM (inactive)
DU-145
  GI50: 6.68 µM (inactive)
CAKI-1
  GI50: 9.68 µM (inactive)
NCI-H460
  GI50: 5.64 µM (inactive)
K562
  GI50: 3.47 µM (inactive)
MDA-N
  GI50: 2.74 µM (inactive)
PC-3
  GI50: 8.41 µM (inactive)

## O=C1CSC2(CC(/C=C/c3ccccc3Br)=NN2c2cccc(S(=O)(=O)O)c2)N1c1nc2ccccc2s1 (centres undefined)
HT-29
  GI50: > 100 µM (inactive)
HCC 2998
  GI50: > 100 µM (inactive)
NCI/ADR-RES
  GI50: > 100 µM (inactive)
SF-268
  GI50: > 100 µM (inactive)
Hs-578T
  GI50: > 100 µM (inactive)
SK-MEL-2
  GI50: > 100 µM (inactive)
CCRF-CEM
  GI50: 30.5 µM (inactive)
SF-539
  GI50: > 100 µM (inactive)
A498
  GI50: > 100 µM (inactive)
MDA-MB-231
  GI50: > 100 µM (inactive)
UACC-257
  GI50: > 100 µM (inactive)
RPMI-8226
  GI50: 44.8 µM (inactive)
HCT-116
  GI50: > 100 µM (inactive)
SK-MEL-28
  GI50: > 100 µM (inactive)
NCI-H23
  GI50: > 100 µM (inactive)
ACHN
  GI50: > 100 µM (inactive)
Malme-3M
  GI50: > 100 µM (inactive)
HCT-15
  GI50: > 100 µM
LOX IMVI
  GI50: > 100 µM (inactive)
M14
  GI50: > 100 µM (inactive)
MOLT-4
  GI50: 52 µM (inactive)
TK-10
  GI50: 45.7 µM (inactive)
IGROV-1
  GI50: 55.1 µM (inactive)
786-0
  GI50: > 100 µM (inactive)
A549
  GI50: > 100 µM (inactive)
RXF 393
  GI50: > 100 µM (inactive)
SN12C
  GI50: > 100 µM (inactive)
SK-MEL-5
  GI50: 76 µM (inactive)
OVCAR-8
  GI50: > 100 µM (inactive)
U-251
  GI50: 75.5 µM (inactive)
SNB-75
  GI50: > 100 µM (inactive)
NCI-H522
  GI50: 52 µM (inactive)
EKVX
  GI50: > 100 µM (inactive)
UO-31
  GI50: 93.5 µM (inactive)
OVCAR-4
  GI50: 75.9 µM (inactive)
SR
  GI50: 33 µM (inactive)
SNB-19
  GI50: > 100 µM (inactive)
SW-620
  GI50: > 100 µM (inactive)
OVCAR-5
  GI50: > 100 µM (inactive)
KM12
  GI50: 98.4 µM (inactive)
MDA-MB-435
  GI50: 43.1 µM (inactive)
UACC-62
  GI50: 51.5 µM (inactive)
T47D
  GI50: 27.6 µM (inactive)
NCI-H226
  GI50: 53.2 µM (inactive)
HOP-92
  GI50: 87.9 µM (inactive)
COLO 205
  GI50: > 100 µM (inactive)
BT-549
  GI50: > 100 µM (inactive)
HL-60
  GI50: > 100 µM (inactive)
MCF7
  GI50: 50.4 µM (inactive)
DU-145
  GI50: > 100 µM (inactive)
CAKI-1
  GI50: > 100 µM (inactive)
NCI-H460
  GI50: > 100 µM (inactive)
K562
  GI50: 54.8 µM (inactive)
MDA-N
  GI50: > 100 µM (inactive)
PC-3
  GI50: > 100 µM (inactive)

## Cc1ccc(N2C(=O)C(=O)N(/N=C3\C(=O)Nc4ccccc43)C2=S)cc1
HT-29
  GI50: 58.6 µM (inactive)
HCC 2998
  GI50: 93.5 µM (inactive)
NCI/ADR-RES
  GI50: 28.8 µM (inactive)
SF-268
  GI50: 58.5 µM (inactive)
Hs-578T
  GI50: > 100 µM (inactive)
SK-MEL-2
  GI50: 30.3 µM (inactive)
CCRF-CEM
  GI50: 7.96 µM (inactive)
SF-539
  GI50: > 100 µM (inactive)
A498
  GI50: > 100 µM (inactive)
MDA-MB-231
  GI50: > 100 µM (inactive)
UACC-257
  GI50: > 100 µM (inactive)
RPMI-8226
  GI50: 40.6 µM (inactive)
SF-295
  GI50: 54.1 µM (inactive)
HCT-116
  GI50: 65.8 µM (inactive)
SK-MEL-28
  GI50: > 100 µM (inactive)
NCI-H23
  GI50: 86.7 µM (inactive)
ACHN
  GI50: 67.6 µM (inactive)
HOP-62
  GI50: > 100 µM (inactive)
Malme-3M
  GI50: > 100 µM (inactive)
HCT-15
  GI50: 39.8 µM
LOX IMVI
  GI50: 31.6 µM (inactive)
M14
  GI50: > 100 µM (inactive)
MOLT-4
  GI50: 28.8 µM (inactive)
TK-10
  GI50: > 100 µM (inactive)
IGROV-1
  GI50: 95.5 µM (inactive)
786-0
  GI50: 46.6 µM (inactive)
A549
  GI50: > 100 µM (inactive)
RXF 393
  GI50: 39.1 µM (inactive)
SN12C
  GI50: > 100 µM (inactive)
SK-MEL-5
  GI50: 41.2 µM (inactive)
OVCAR-8
  GI50: 59.3 µM (inactive)
U-251
  GI50: 26.3 µM (inactive)
SNB-75
  GI50: > 100 µM (inactive)
NCI-H522
  GI50: 63.2 µM (inactive)
EKVX
  GI50: > 100 µM (inactive)
UO-31
  GI50: > 100 µM (inactive)
SR
  GI50: 38.7 µM (inactive)
SNB-19
  GI50: > 100 µM (inactive)
SW-620
  GI50: 44.2 µM (inactive)
OVCAR-3
  GI50: 64.4 µM (inactive)
OVCAR-5
  GI50: > 100 µM (inactive)
KM12
  GI50: 65.8 µM (inactive)
MDA-MB-435
  GI50: 36.6 µM (inactive)
UACC-62
  GI50: 92.9 µM (inactive)
SK-OV-3
  GI50: > 100 µM (inactive)
T47D
  GI50: 38.2 µM (inactive)
HOP-92
  GI50: > 100 µM (inactive)
COLO 205
  GI50: 42 µM (inactive)
BT-549
  GI50: 85.3 µM (inactive)
HL-60
  GI50: 0.0998 µM (active)
MCF7
  GI50: 43.2 µM (inactive)
DU-145
  GI50: > 100 µM (inactive)
CAKI-1
  GI50: 92.5 µM (inactive)
NCI-H460
  GI50: 31.5 µM (inactive)
K562
  GI50: 37.1 µM (inactive)
MDA-N
  GI50: 59.7 µM (inactive)
PC-3
  GI50: 39.4 µM (inactive)
